Laboratory results taken from US9168295B2, “Vaccine peptide combinations” (Circassia Limited, priority 2007, dated 2015).
“Also recorded” adds a separate entry of the source. Like-named read-outs stand apart in the source and are kept apart here. No end group written: not given here.

System: peripheral blood basophils (PBMC) from cat allergic subjects
Test: Histamine release assay and histamine ELISA
Format: cell-based, human
Conditions: for frequency of histamine release, in words: comparison among individual peptides
Description: Histamine release from fresh peripheral whole blood from cat allergic subjects was evaluated. Peripheral blood basophils were used as a surrogate for tissue mast cells which were not practical to assay. Blood was incubated in vitro with 9 individual peptides from the sequence of the major cat allergen Fel d 1 (SEQ ID NOS: 1, 2, 3, 4, 5, 6, 7, 11 and 12). These peptides were selected as potential T cell epitopes following peptide-MHC binding assays as explained in Example 1. Additionally, responses to a preferred mixtures of a mixture of 7 peptides identified in Example 1 were analysed. The tested preferred mixture of 7 peptides consisted of the peptides of SEQ ID NOS: 1 to 7. Histamine release in response to whole cat dander allergen extract acted as a positive control.
Peripheral blood mononuclear cells (PBMC) were isolated from the heparinised blood sample obtained from the subject. PBMC's were isolated by Ficoll-Hypaque density gradient separation. Once isolated, the cells were used in the cell proliferation assay, histamine release and ELISA assay and the cytokine release assay.
Assays were performed on PBMC (which contain basophils). Each peptide and combinations of peptides was compared with whole allergen molecules in a histamine release assay. Histamine concentrations were measured by ELISA.
The assay required 3×10^6 PBMC's per subject. The assay was performed using the Immunotech Histamine Release Immunoassay kit according to the manufacturer's instructions. Following the histamine release assay, acylated samples were tested by histamine ELISA. The histamine ELISA used 50 μl of the 100 μl acylated sample generated by the histamine release assay. The remaining 50 μl of sample was retained, by freezing at −20° C. until the data analysis section of the ELISA has been completed. Once the results had been analysed and the ELISA performed in a satisfactory manner, the samples were discarded.
Peptides were assayed for their ability to induce histamine release over a 5 log10 range (10 μg/ml to 1 ng/ml). The concentration range assayed was selected based on theoretical in vivo doses of peptide that may be achieved during therapy. For example, a 10 μg dose of peptide entering a blood volume of 5 litres, would result in a blood concentration of 2 ng/ml (2×10^−6 mg/ml), at the lower end of the histamine release assay dose range. Whole cat dander extract (C.B.F. LETI) was used as a positive control for release over a slightly higher concentration range (100 μg to 10 ng/ml). Single measurements (i.e. not duplicate or triplicate) were performed for each dilution. One duplicate blood sample was assayed for spontaneous histamine release and the mean value of these samples was subtracted from all peptide/allergen results.
After completion of the histamine ELISA, individual histamine levels were determined by interpolation for the standard curve generated in the ELISA assay. Results from samples were adjusted to allow for any dilution of the samples.
Histamine release was considered positive if (a) the highest concentration of peptide alone induced release of 10% or more of the total release value or (b) if two consecutive values were 10% or more of the total release. […] Of these, 6/81 (7.4%) had not positive control release to whole cat allergen extract.

Compound | number of individuals in whom histamine release was detected (of 81 subjects) | other results
TAMKKIQDCYVENGLI [MLA12, TAMKKIQDCYVENGLI] | 6 | –
CC(C)C[C@H](NC(=O)[C@@H](NC(=O)[C@@H](NC(=O)[C@@H]1CCCN1C(=O)[C@H](CC(C)C)NC(=O)[C@H](C)NC(=O)[C@H](CCCCN)NC(=O)[C@H](Cc1ccc(O)cc1)NC(=O)[C@H](CCC(N)=O)NC(=O)[C@H](C)NC(=O)[C@@H](NC(=O)[C@H](CCC(N)=O)NC(=O)[C@@H](N)CCC(=O)O)C(C)C)C(C)C)C(C)C)C(=O)N[C@@H](CCC(=O)O)C(=O)N[C@@H](CC(N)=O)C(=O)N[C@@H](C)C(=O)O [MLA03, EQVAQYKALPVVLENA] | 6 | –
RILKNCVDAKMTEEDKE [MLA05, RILKNCVDAKMTEEDKE] | – | number of individuals in whom histamine release was detected: 1
SRVLDGLVMTTISSSK [MLA14, SRVLDGLVMTTISSSK] | 2 | –
AVQNTVEDLKLNTLGR [MLA16, AVQNTVEDLKLNTLGR] | 11 | frequency of histamine release, in words: most commonly released histamine; also recorded: the most frequent basophil histamine release responses; also recorded: most frequently associated with histamine release; also recorded: caused most frequent release; also recorded: gave the highest histamine release
KENALSVLDKIYTSPL [MLA07] | – | number of individuals in whom histamine release was detected: 6
KALPVVLENARILKNCV [MLA04, KALPVVLENARILKNCV] | 6 | –
ISSSKDCMGEAVQNTV [MLA15, ISSSKDCMGEAVQNTV] | 7 | frequency of histamine release, in words: most commonly released histamine; also recorded: the most frequent basophil histamine release responses; also recorded: gave the highest histamine release; Comments on histamine release (individual subject): MLA15 JUST ABOVE THE 10% CUT OFF
